{"source": "patent US5147855A", "about": "“Conjugates of VIP and active fragments thereof with hydrophobic moieties and topical compositions for male impotence” (Yeda Research and Development Co. Ltd., priority 1988, dated 1992)", "key": {"[1]": {"tested_on": "sexual behaviour of male rats", "experiment": "Sexual behaviour of castrated male rats, topical application of several materials (Table III)", "assay_type": "in vivo, rat", "design": "key to Ejaculations (E): E = Ejaculations", "conditions": "for Ejaculations (E) / No. Ob. / Int. Latency: individual rats; for No. Ob. / Int. Latency: castrated 14 days earlier, testosterone 4 μg/100 g BW daily; for Int. Latency: in s", "from_the_text": "(§1) The animal model -- All tested rats (Wistar derived from the departmental colony, Hormone Research Department, at the Weizmann Institute of Science), are sexually experienced male rats around 3 months of age (body weight ~250 g). At this age, the rats are castrated by removal of the testes and injected daily with testosterone for at least 14 consecutive days.\n(§2) All rats (males and females) that take part in the experiment are kept in a 12-hour light 12-hour dark cycle. Prior to testing, each male is put in a separate cage for at least 1 hour. A sexually receptive female is introduced to each male. Females were tested for their receptivity by vaginal smearings. The latencies of mounts and intromissions are recorded.\n6 rats, 120 days old, sexually experienced, were tested. The rats were castrated 14 days earlier and were injected with 4 μg/100 g BW of testosterone daily. […] All 6 materials were tested by topical application."}, "penile erection": {"tested_on": "penile erection", "conditions": "injection; cited from earlier work"}, "[2]": {"tested_on": "sexual behaviour of male rats", "experiment": "Sexual behaviour of castrated male rats after topical application in DMSO (Table II)", "assay_type": "in vivo, rat", "design": "key to Ejaculations (E): E = Ejaculations", "conditions": "for Effect on sexual activity (words): compared with DMSO control", "from_the_text": "as §1\nas §2, with “recorded. […] Using castrated animals we achieved decreased sexual activity which is expressed by longer intervals between intromissions and less intromissions during the 15 min observation periods.” for “recorded.”\nAs we have obtained positive results with stearyl-VIP by injection we have now developed a topical application method. This was achieved by mixing 20 μl of 1 μg/ml VIP-stearyl with 10 μl dimethyl sulfoxide (DMSO) and direct topical application on the sex organ.\nRats were castrated and injected daily for 16 consecutive days with testosterone at 2 μg/100 g BW. Testing was performed by topical application of stearyl-VIP-20 μg/20 μl mixed with 10 μl DMSO and compared to topical application of 30 μl DMSO."}, "[3]": {"tested_on": "sexual behaviour of male rats", "experiment": "Sexual behaviour of castrated, testosterone-treated male rats after intravenous injection (Table I)", "assay_type": "in vivo, rat", "design": "key to Ejaculations (E): E = Ejaculations", "from_the_text": "as §1\nas §2, with “recorded. […] Using castrated animals we achieved decreased sexual activity which is expressed by longer intervals between intromissions and less intromissions during the 15 min observation periods.” for “recorded.”\nInitially, we tested a few VIP analogs by injection (intravenously 5-10 μg/animal). As a control we injected saline at identical volumes (5-10 μl).\nRats were castrated and injected daily for 15 consecutive days with testosterone at 4 μg/100 g body weight (BW). Tests were performed with stearyl-VIP or VIP at 10 μg/animal."}, "[4]": {"tested_on": "sexual behaviour of male rats", "experiment": "Sexual behaviour of male rats after topical application of ointment (Table IV)", "assay_type": "in vivo", "conditions": "ointment applied onto the rat's penis", "from_the_text": "as §1\nas §2, with “recorded. […] Using castrated animals we achieved decreased sexual activity which is expressed by longer intervals between intromissions and less intromissions during the 15 min observation periods.” for “recorded.”\nPreparation of Ointment -- Lanolin (1 g), water (3 g) DMSO (7 drops) and 10 mg of stearyl-VIP were manually homogenized in a mortar. An amount of paste, containing 30-50 μg peptide was applied onto the rat's penis and sexual behaviour, following the methodology previously described, was monitored.\n(B) Using the same protocol as in (A) an ointment of VIP-oleyl was prepared and tested."}, "[5]": {"conditions": "individual castrated rats, testosterone 4 μg/100 g BW daily 15 days, injection 10 μg/animal, listed as VIP stearyl"}}, "note": "Where “and” joins values, the source holds several entries; their conditions need not be identical. Identical values can stand only once. No end group written: not given here. NH = not defined here; oleyl = oleyl moiety", "data": [{"compound": "CCCCCCCCCCCCCCCCCC(=O)O", "note": "[Stearic acid, reference compound]", "values": [{"measurement": "Ejaculations (E)", "setting": "[1]", "result": "E"}, {"measurement": "No. Ob.", "setting": "[1]", "result": "19 and 21"}, {"measurement": "Int. Latency", "setting": "[1]", "result": "26 ± 1 and 18 ± 3 and 36 ± 2"}]}, {"compound": "CC(COc1ccccc1)N(CCCl)Cc1ccccc1", "note": "(stereo not drawn) [phenoxybenzamine]", "values": [{"measurement": "Erection", "setting": "penile erection", "result": "Erection was also obtained"}]}, {"compound": "Stearyl-VIP", "values": [{"measurement": "Obs. (number of intromissions)", "setting": "[2]; individual castrated rats, testosterone 2 μg/100 g BW daily 16 days, topical 20 μg/20 μl mixed with 10 μl DMSO", "result": "21 and 14 and 10 and 3 and 11 and 25"}, {"measurement": "Intromission latency", "setting": "[2]; individual castrated rats, testosterone 2 μg/100 g BW daily 16 days, topical 20 μg/20 μl mixed with 10 μl DMSO, in s", "result": "23 ± 4 and 29 ± 4 and 32 ± 8 and 16 ± 3 and 38 ± 10 and 18 ± 7 and 24 ± 4"}, {"measurement": "Ejaculations (E)", "setting": "[2]; individual castrated rats, topical in DMSO", "result": "E"}, {"measurement": "Effect on sexual activity (words)", "setting": "[2]; topical in DMSO", "result": "remarkable sexual arousal"}, {"measurement": "Effect on sexual activity (words)", "setting": "[2]; topical in DMSO, listed as StearylVIP", "result": "rats B2 and A3 were sexually active only after"}, {"measurement": "Intromission latency", "setting": "[3]; [5]", "result": "17 ± 3 s and 28 ± 7 s and 50 ± 17 s and 33 ± 6 s and 37 ± 6 s and 56 ± 8 s and 45 ± 7 s"}, {"measurement": "Obs. = Number of intromissons per 15 minute test period", "setting": "[3]; [5]", "result": "7 and 4 and 12 and 20 and 14 and 6"}, {"measurement": "Ejaculations (E)", "setting": "[3]; individual castrated rats, injection 10 μg/animal", "result": "E"}, {"measurement": "Effect on sexual activity (words)", "setting": "[3]; injection", "result": "potentiates sexual activity in a comparable manner to VIP"}, {"measurement": "Activity upon topical application", "setting": "[1]", "result": "the most active analog"}, {"measurement": "Change in latency", "setting": "[1]; 6 rats", "result": "shortening of latency"}, {"measurement": "Change in number of ejaculations", "setting": "[1]; 6 rats", "result": "clear increase in the number of ejaculations"}, {"measurement": "Change in number of intromissions", "setting": "[1]; 6 rats", "result": "increase in number of intromissions"}, {"measurement": "Ejaculations (E)", "setting": "[1]", "result": "E"}, {"measurement": "No. Ob.", "setting": "[1]", "result": "6 and 28 and 20 and 49 and 31"}, {"measurement": "Int. Latency", "setting": "[1]", "result": "66 ± 15 and 18 ± 3 and 18 ± 2 and 12 ± 3 and 26 ± 1"}, {"measurement": "Decrease (shortening) in intromission latency", "setting": "[4]", "result": "about 25%"}, {"measurement": "Increase in ejaculations", "setting": "[4]", "result": "two-fold"}]}, {"compound": "VIP-oleyl: VIP coupled to an oleyl moiety, tested as an ointment (HSDAVFTDNYTRLRKQMAVKKYLNSILN-{NH-oleyl}; ends and bridges not checked; UniProt P01282 125-152, looked up)", "values": [{"measurement": "Decrease (shortening) in intromission latency", "setting": "[4]", "result": "~ 10%"}, {"measurement": "Increase in ejaculations", "setting": "[4]", "result": "increased, though much less than stearyl-VIP"}]}]}
